Tests used:
Test in all cases: Lung cancer cell line panel screened for sensitivity to BPTES, 72 hr proliferation assay
Type in all cases: cell-based
A427 = test system: A427
Description: (§1) Of these, 44 of the cell lines have been classified as non-small cell lung cancer (NSCLC). […] Four of the top 25 transcriptional/cellular pathways were related to the epithelial-mesenchymal transition (EMT) (ranks 1, 15, 23, 25 of FIG. 2). […] Low E-cadherin/high vimentin are well-defined markers of cells that have a mesenchymal phenotype as characterized for example, in any one of the following references: (Yauch et al., (2005) Cin Cancer Res 11:24; Savagner et al., (2010) Ann Oncol. 21(suppl 7): vii89; Thiery et al., (2002) Nature Reviews Cancer June vol 2:442).

CALU-6 = CALU-6 cell line
Description: as §1

COR-L279 = test system: COR-L279
Description: as §1

DMS-153 = DMS-153 cell line
Description: as §1

HCC15 = test system: HCC15
Description: as §1

NCI-H1092 = test system: NCI-H1092
Description: as §1

NCI-H1155 = test system: NCI-H1155
Description: as §1

NCI-H1355 = test system: NCI-H1355
Description: as §1

NCI-H1436 = test system: NCI-H1436
Description: as §1

NCI-H1563 = test system: NCI-H1563
Description: as §1

NCI-H1581 = test system: NCI-H1581
Description: as §1

NCI-H1618 = test system: NCI-H1618
Description: as §1

NCI-H1650 = test system: NCI-H1650
Description: as §1

NCI-H1651 = test system: NCI-H1651
Description: as §1

NCI-H1734 = test system: NCI-H1734
Description: as §1

NCI-H1975 = test system: NCI-H1975
Description: as §1

NCI-H2030 = test system: NCI-H2030
Description: as §1

NCI-H2081 = test system: NCI-H2081
Description: as §1

NCI-H2122 = test system: NCI-H2122
Description: as §1

NCI-H2170 = test system: NCI-H2170
Description: as §1

NCI-H2171 = test system: NCI-H2171
Description: as §1

NCI-H23 = test system: NCI-H23
Description: as §1

NCI-H292 = test system: NCI-H292
Description: as §1

NCI-H358 = test system: NCI-H358
Description: as §1

NCI-H446 = test system: NCI-H446
Description: as §1

NCI-H460 = test system: NCI-H460
Description: as §1

NCI-H520 = test system: NCI-H520
Description: as §1

NCI-H596 = test system: NCI-H596
Description: as §1

NCI-H661 = test system: NCI-H661
Description: as §1

NCI-H774 = test system: NCI-H774
Description: as §1

NCI-H838 = test system: NCI-H838
Description: as §1

SW-1573 = test system: SW-1573
Description: as §1

SW900 = test system: SW900
Description: as §1

With `O=C(Cc1ccccc1)Nc1nnc(CCSCCc2nnc(NC(=O)Cc3ccccc3)s2)s1` [BPTES] as the compound, how does the “Max Inh @ 10 uM (%)” value (A427; A427, 10 uM) read?
The value was 86%.

And the “Mu/max @10 uM” value (A427; A427, 10 uM)?
Its value is −0.49.

And the “μ/μmax @10 uM” value (A427; A427, 10 uM)?
Its value is −0.49.

What about the μ/μmax (A427; A427 cell line) of the same compound?
Its μ/μmax is −0.49.

What about the μ/μmax (CALU-6) of the same compound?
Its μ/μmax is 0.82.

What about the μ/μmax (COR-L279) of the same compound?
Its μ/μmax is 0.88.

And the μ/μmax (DMS-153)?
Its μ/μmax is 0.58.

What about the “Max Inh @ 10 uM (%)” value (HCC15; HCC15, 10 uM) of the same compound?
Its value is 40%.

And the “Mu/max @10 uM” value (HCC15; HCC15, 10 uM)?
The value was 0.64.

What about the “μ/μmax @10 uM” value (HCC15; HCC15, 10 uM) of the same compound?
The value was 0.64.

And the μ/μmax (HCC15; HCC15 cell line)?
Its μ/μmax is 0.64.

And the μ/μmax (NCI-H1092)?
The μ/μmax was 0.77.

What about the μ/μmax (NCI-H1155) of the same compound?
Its μ/μmax is 0.93.

What about the μ/μmax (NCI-H1355) of the same compound?
The μ/μmax was 0.78.

And the μ/μmax (NCI-H1436)?
The μ/μmax was 0.68.

What about the “Max Inh @ 10 uM (%)” value (NCI-H1563; NCI-H1563, 10 uM) of the same compound?
The value was 8%.

What about the “Mu/max @10 uM” value (NCI-H1563; NCI-H1563, 10 uM) of the same compound?
Its value is 0.92.

And the “μ/μmax @10 uM” value (NCI-H1563; NCI-H1563, 10 uM)?
The value was 0.92.

And the μ/μmax (NCI-H1563; NCI-H1563 cell line)?
The μ/μmax was 0.92.

And the μ/μmax (NCI-H1581)?
The μ/μmax was 0.51.

What about the μ/μmax (NCI-H1618) of the same compound?
Its μ/μmax is 0.53.

And the μ/μmax (NCI-H1650)?
Its μ/μmax is 0.26.

What about the μ/μmax (NCI-H1651) of the same compound?
The μ/μmax was 1.00.

What about the μ/μmax (NCI-H1734) of the same compound?
Its μ/μmax is −0.12.

And the “Max Inh @ 10 uM (%)” value (NCI-H1975; NCI-H1975, 10 uM)?
Its value is 18%.

What about the “Mu/max @10 uM” value (NCI-H1975; NCI-H1975, 10 uM) of the same compound?
Its value is 0.75.

What about the “μ/μmax @10 uM” value (NCI-H1975; NCI-H1975, 10 uM) of the same compound?
The value was 0.75.

And the μ/μmax (NCI-H1975; NCI-H1975 cell line)?
The μ/μmax was 0.75.

And the “Max Inh @ 10 uM (%)” value (NCI-H2030; NCI-H2030, 10 uM)?
Its value is 87%.

And the “Mu/max @10 uM” value (NCI-H2030; NCI-H2030, 10 uM)?
The value was 0.37.

And the “μ/μmax @10 uM” value (NCI-H2030; NCI-H2030, 10 uM)?
Its value is 0.37.

What about the μ/μmax (NCI-H2030; NCI-H2030 cell line) of the same compound?
Its μ/μmax is 0.37.

What about the μ/μmax (NCI-H2081) of the same compound?
The μ/μmax was 1.00.

What about the “Max Inh @ 10 uM (%)” value (NCI-H2122; NCI-H2122, 10 uM) of the same compound?
The value was 58%.

What about the “Mu/max @10 uM” value (NCI-H2122; NCI-H2122, 10 uM) of the same compound?
The value was 0.56.

And the “μ/μmax @10 uM” value (NCI-H2122; NCI-H2122, 10 uM)?
Its value is 0.56.

And the μ/μmax (NCI-H2122; NCI-H2122 cell line)?
Its μ/μmax is 0.56.

What about the μ/μmax (NCI-H2170) of the same compound?
Its μ/μmax is 0.82.

What about the μ/μmax (NCI-H2171) of the same compound?
The μ/μmax was 0.88.

And the “Max Inh @ 10 uM (%)” value (NCI-H23; NCI-H23, 10 uM)?
The value was 45%.

What about the “Mu/max @10 uM” value (NCI-H23; NCI-H23, 10 uM) of the same compound?
Its value is 0.60.

What about the “μ/μmax @10 uM” value (NCI-H23; NCI-H23, 10 uM) of the same compound?
The value was 0.60.

And the μ/μmax (NCI-H23; NCI-H23 cell line)?
The μ/μmax was 0.60.

And the μ/μmax (NCI-H292)?
The μ/μmax was 0.89.

And the “sensitivity to BPTES” value (NCI-H358; NCI-H358)?
Its value is “relatively BPTES insensitive”.

What about the “Max Inh @ 10 uM (%)” value (NCI-H358; NCI-H358, 10 uM) of the same compound?
The value was 27%.

What about the “Mu/max @10 uM” value (NCI-H358; NCI-H358, 10 uM) of the same compound?
Its value is 0.66.

What about the “μ/μmax @10 uM” value (NCI-H358; NCI-H358, 10 uM) of the same compound?
Its value is 0.66.

What about the μ/μmax (NCI-H358; NCI-H358 cell line) of the same compound?
Its μ/μmax is 0.66.

And the μ/μmax (NCI-H446)?
The μ/μmax was 0.84.

What about the “Max Inh @ 10 uM (%)” value (NCI-H460; NCI-H460, 10 uM) of the same compound?
Its value is 18%.

What about the “Mu/max @10 uM” value (NCI-H460; NCI-H460, 10 uM) of the same compound?
Its value is 0.92.

And the “μ/μmax @10 uM” value (NCI-H460; NCI-H460, 10 uM)?
The value was 0.92.

And the μ/μmax (NCI-H460; NCI-H460 cell line)?
The μ/μmax was 0.92.

And the “Max Inh @ 10 uM (%)” value (NCI-H520; NCI-H520, 10 uM)?
Its value is 14%.

What about the “Mu/max @10 uM” value (NCI-H520; NCI-H520, 10 uM) of the same compound?
Its value is 0.79.

And the “μ/μmax @10 uM” value (NCI-H520; NCI-H520, 10 uM)?
Its value is 0.79.

What about the μ/μmax (NCI-H520; NCI-H520 cell line) of the same compound?
The μ/μmax was 0.79.

What about the “Max Inh @ 10 uM (%)” value (NCI-H596; NCI-H596, 10 uM) of the same compound?
Its value is 13%.

What about the “Mu/max @10 uM” value (NCI-H596; NCI-H596, 10 uM) of the same compound?
The value was 0.84.

What about the “μ/μmax @10 uM” value (NCI-H596; NCI-H596, 10 uM) of the same compound?
Its value is 0.84.

What about the μ/μmax (NCI-H596; NCI-H596 cell line) of the same compound?
Its μ/μmax is 0.84.

What about the “Max Inh @ 10 uM (%)” value (NCI-H661; NCI-H661, 10 uM) of the same compound?
Its value is 73%.

And the “Mu/max @10 uM” value (NCI-H661; NCI-H661, 10 uM)?
The value was 0.43.

What about the “μ/μmax @10 uM” value (NCI-H661; NCI-H661, 10 uM) of the same compound?
Its value is 0.43.

What about the μ/μmax (NCI-H661; NCI-H661 cell line) of the same compound?
The μ/μmax was 0.43.

And the μ/μmax (NCI-H774)?
Its μ/μmax is 0.54.

And the “sensitivity to BPTES” value (NCI-H838; NCI-H838)?
The value was “moderate level of sensitivity”.

What about the “Max Inh @ 10 uM (%)” value (NCI-H838; NCI-H838, 10 uM) of the same compound?
Its value is 37%.

What about the “Mu/max @10 uM” value (NCI-H838; NCI-H838, 10 uM) of the same compound?
Its value is 0.66.

And the “μ/μmax @10 uM” value (NCI-H838; NCI-H838, 10 uM)?
Its value is 0.66.

What about the μ/μmax (NCI-H838; NCI-H838 cell line) of the same compound?
The μ/μmax was 0.66.

And the “Max Inh @ 10 uM (%)” value (SW-1573; SW-1573, 10 uM)?
Its value is 68%.

And the “Mu/max @10 uM” value (SW-1573; SW-1573, 10 uM)?
The value was 0.12.

What about the “μ/μmax @10 uM” value (SW-1573; SW-1573, 10 uM) of the same compound?
Its value is 0.12.

And the μ/μmax (SW-1573; SW-1573 cell line)?
Its μ/μmax is 0.12.

And the μ/μmax (SW900)?
Its μ/μmax is 0.70.
